Reference: paper PMC5863515, “Re-evaluation of Adrenocorticotropic Hormone and Melanocyte Stimulating Hormone Activation of GPR139 in Vitro” (Frontiers in Pharmacology, 2018)
Where two headings read alike, the source gives them in different places.

Legend:
[1] = molecular target: T1, GPR139 (Homo sapiens, UniProt Q6DWJ6); assay: [3H]JNJ-63533054 radioligand binding assay, membranes of CHO-TREx cells stably expressing human GPR139; set-up: expressed in transfected cells; host or cells: CHO-TREx GPR139 clone#18
T1 sequence (Q6DWJ6 1-353): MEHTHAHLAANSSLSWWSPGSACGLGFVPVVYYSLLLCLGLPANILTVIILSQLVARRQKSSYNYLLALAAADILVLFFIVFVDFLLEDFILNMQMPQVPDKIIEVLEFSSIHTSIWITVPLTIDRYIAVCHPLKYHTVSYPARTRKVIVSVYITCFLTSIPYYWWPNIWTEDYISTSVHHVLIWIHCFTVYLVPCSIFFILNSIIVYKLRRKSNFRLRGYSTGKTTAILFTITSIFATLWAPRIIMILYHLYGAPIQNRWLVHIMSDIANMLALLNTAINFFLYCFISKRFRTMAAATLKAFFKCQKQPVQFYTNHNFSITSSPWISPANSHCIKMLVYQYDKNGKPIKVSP
Description: Reaction was terminated by filtration through GF/C filterplates pre-treated with PEI (polyethyleneimine) followed by washes with ice-cold TE buffer. Filterplates were dried in a 60°C oven followed by addition of Microscint-0. Bound radioactivity was read on a Topcount scintillation counter. […] Half-maximal inhibitory concentrations (IC50s) of test compounds were calculated by fitting a three-parameter logistic curve using least-squares non-linear regression analysis as implemented in Graphpad Prism 7.0. The Top plateau was fixed at 100 and the Bottom was fixed at 0.

[2] = molecular target: T1, GPR139; assay: Calcium mobilization, SK-N-MC/CRE cells stably expressing human GPR139; type: cell-based; set-up: expressed in transfected cells; host or cells: CHO-TREx GPR139 clone#18
Description: (§1) Human MC3R (NM_019888), MC4R (NM_005912), and MC5R (NM_005913) were transiently expressed in HEK-293 cells with and without human GPR139 (KR081941) or the chimeric G-protein Gα16. All genes were cloned into pCIneo (Promega, Madison, WI, United States, #E1841). HEK-293 cells were cultured in DMEM/F12 (Gibco, Grand Island, NY, United States, #11039-021), 10% FBS (Hyclone, Logan, UT, United States, # SH300700.03), 50 units/ml penicillin and 50 μg/ml streptomycin (Mediatech, Manassas, VA, United States, #30-001-CI). Cells were seeded at 4 × 10^6 cells in 10 cm dishes and allowed to grow overnight at 37°C, 5% CO2. On the day of transfection, culture media was replaced with F12-K (Mediatech, Manassas, VA, United States, #10-025-CV), 10% FBS, 20 mM HEPES (Hyclone, Logan, UT, United States, #SH30237.01) and transfected with 15 μg DNA (10 μg MCR:5 μg pCIneo, 10 μg MCR:5 μg Gα16 or 7.5 μg MCR:7.5 μg GPR139) using FuGene HD (Promega, Madison, WI, United States, #E2311) according to manufacturer’s instructions. MC3R, MC4R, and MC5R were also transiently expressed in the following GPR139 stably expressing cell lines using the FuGENE HD method: HEK-293 GPR139 clone#33, CHO-TREx GPR139 clone#18, and SK-N-MC/CRE TREx GPR139 clone#35. Stable cell lines were established according to method previously described ([Liu et al., 2015]).
(§2) Intracellular calcium mobilization was measured with the BD calcium kit (BD Bioscience, San Jose, CA, United States). The recombinant cell lines expressing MC3R, MC4R, and MC5R with and without GPR139 or Gα16 were seeded in culture media at a density of 50,000 cells/well into 96-well black/clear-bottom poly-D-lysine treated tissue culture plates. Cells were incubated overnight at 37°C and 5% CO2. Next day, culture media was removed and cells were washed with HBSS prior to dye-loading for 1 h at 37°C and 5% CO2. Agonist stimulation and intracellular calcium measurements were done on the FLIPR Tetra (Molecular Devices, Sunnyvale, CA, United States). For receptor inhibition analysis, antagonists (1 μM HS-024 or 10 μM JNJ-3792165) were added off-line 15 min prior to agonist addition on the Tetra. For G-protein inhibitor experiments, cells were treated with 1 μM YM-254890 for 5 min prior to agonist additions on the Tetra. […] Responses in Figure 6 were normalized to its respective agonist response without antagonist. EC50s were calculated by fitting a three-parameter logistic curve using least-squares non-linear regression analysis as implemented in Graphpad Prism 7.0.

[3] = molecular target: T2, GPR139 + MC3R (Homo sapiens, UniProt Q6DWJ6); assay: Calcium mobilization, stable GPR139-HEK-293 cell line transiently expressing MC3R; type: cell-based
T2 construct: expressed in transfected cells; host or cells: HEK-293 GPR139 clone#33, MC3R transient (FuGENE HD)
T2 sequence (Q6DWJ6 1-353): T1 sequence (Q6DWJ6 1-353)
Description: as §1
(§3) Intracellular calcium mobilization was measured with the BD calcium kit (BD Bioscience, San Jose, CA, United States). The recombinant cell lines expressing MC3R, MC4R, and MC5R with and without GPR139 or Gα16 were seeded in culture media at a density of 50,000 cells/well into 96-well black/clear-bottom poly-D-lysine treated tissue culture plates. Cells were incubated overnight at 37°C and 5% CO2. Next day, culture media was removed and cells were washed with HBSS prior to dye-loading for 1 h at 37°C and 5% CO2. […] EC50s were calculated by fitting a three-parameter logistic curve using least-squares non-linear regression analysis as implemented in Graphpad Prism 7.0.

[4] = molecular target: T1, GPR139; assay: Calcium mobilization, CHO-TREx cells stably expressing human GPR139; type: cell-based; set-up: expressed in transfected cells; host or cells: CHO-TREx GPR139 clone#18
[5] = molecular target: T3, MC5R (Homo sapiens, UniProt P33032); assay: Calcium mobilization, HEK-293 transiently expressing MC5R; type: cell-based; conditions: HEK-293 transient; read-out: Agonist potency (pEC50), MC5R (converted)
T3 construct: expressed in transfected cells; host or cells: HEK-293, pCIneo, transient (FuGene HD)
T3 sequence (P33032 whole entry): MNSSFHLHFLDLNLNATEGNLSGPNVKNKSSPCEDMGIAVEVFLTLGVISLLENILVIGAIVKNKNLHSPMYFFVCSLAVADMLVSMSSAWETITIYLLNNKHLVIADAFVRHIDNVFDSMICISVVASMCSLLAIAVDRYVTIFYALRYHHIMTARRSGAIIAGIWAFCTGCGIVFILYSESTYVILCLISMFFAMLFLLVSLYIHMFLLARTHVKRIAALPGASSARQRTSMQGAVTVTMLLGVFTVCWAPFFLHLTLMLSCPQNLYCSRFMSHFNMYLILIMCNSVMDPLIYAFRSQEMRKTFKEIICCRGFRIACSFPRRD
Description: as §1, §3

[6] = molecular target: MC4R + GPR139 (Homo sapiens, UniProt Q6DWJ6); assay: Calcium mobilization, HEK-293 transiently expressing MC4R + GPR139; type: cell-based
MC4R + GPR139, sequence (P32245 whole entry partner, one chain of several): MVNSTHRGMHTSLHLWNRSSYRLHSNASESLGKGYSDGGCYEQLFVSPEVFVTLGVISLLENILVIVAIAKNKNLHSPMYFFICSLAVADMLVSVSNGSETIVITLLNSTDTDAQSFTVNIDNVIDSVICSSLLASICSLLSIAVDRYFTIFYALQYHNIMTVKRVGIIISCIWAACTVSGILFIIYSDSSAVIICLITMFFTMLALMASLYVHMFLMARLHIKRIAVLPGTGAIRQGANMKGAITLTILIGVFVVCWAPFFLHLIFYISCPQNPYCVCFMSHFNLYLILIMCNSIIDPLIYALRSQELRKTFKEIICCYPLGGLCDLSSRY
Description: as §1, §2

[7] = molecular target: MC4R + Gα16 (Homo sapiens, UniProt P32245); assay: Calcium mobilization, HEK-293 transiently expressing MC4R + Gα16; type: cell-based; set-up: expressed in transfected cells; host or cells: HEK-293, pCIneo, transient (10 μg MCR:5 μg Gα16)
MC4R + Gα16, sequence (P32245 whole entry): as the sequence (P32245 whole entry partner, one chain of several) above
Description: as §1, §3

[8] = 10 nM radioligand, CHO-TREx GPR139 membranes, read-out: pKi, displacement of [3H]JNJ-63533054 (converted)
[9] = SK-N-MC/CRE stable GPR139, read-out: pEC50, calcium mobilization (converted)
[10] = read-out: Agonist potency (pEC50), stable GPR139-HEK-293 + MC3R (converted)
[11] = CHO-TREx stable GPR139, read-out: pEC50, calcium mobilization (converted)
[12] = HEK-293 transient, read-out: Agonist potency (pEC50), MC4R + Gα16 (converted)

Compound | Ki [1, 8] | EC50 [2, 9] | EC50 [3, 10] | EC50 [4, 11] | EC50 [5] | EC50 [6] | Agonist potency (pEC50), MC4R + GPR139, No antagonist [6] | EC50 [7, 12] | Ki [1] | EC50 [2] | EC50 [3] | EC50 [4] | EC50 [7]
C[C@H](NC(=O)CNC(=O)c1cccc(Cl)c1)c1ccccc1 [JNJ-63533054, 3-chloro-N-[2-oxo-2-[[(1S)-1-phenylethyl]amino]ethyl]benzamide] | 0.0347 µM | 0.0263 µM | 0.0204 µM | 0.0132 µM | > 10 µM | 0.0355 µM | 7.45 ± 0.09 | > 10 µM | – | – | – | – | –
N[C@@H](Cc1c[nH]c2ccccc12)C(=O)O [L-Trp, L-tryptophan] | 646 µM | 398 µM | 126 µM | 123 µM | > 3160 µM | 93.3 µM | 4.03 ± 0.05 | > 3160 µM | – | – | – | – | –
COc1cc(OC)cc(C(=O)NNC(=O)Nc2cccc3ccccc23)c1 [TC-O9311] | – | – | – | – | > 10 µM | 0.0661 µM | 7.18 ± 0.08 | – | 0.0891 µM | 0.049 µM | 0.0501 µM | 0.0398 µM | > 10 µM
